Test system: not listed separately
Experiment: in vitro
Conditions: mouse, liver microsomes
Description: Metabolic stability in mouse liver microsomes assessed as half-life

`CCCO[C@@H]1O[C@H](CNC(=O)c2ccc(S(N)(=O)=O)cc2)[C@@H](O)[C@H](O)[C@@H]1O` and `CCCO[C@@H]1O[C@H](CNC(=O)c2ccc(S(N)(=O)=O)cc2)[C@@H](O)[C@H](O)[C@H]1O` are within 1.5-fold of each other in half-life: 64.5 h for the first, 59.9 h for the second.

`CCCO[C@@H]1O[C@H](CNC(=O)c2ccc(S(N)(=O)=O)cc2)[C@@H](O)[C@H](O)[C@H]1N` and `CCCO[C@@H]1O[C@H](CNC(=O)c2ccc(S(N)(=O)=O)cc2)[C@H](O)[C@H](O)[C@H]1O` are within 1.5-fold of each other in half-life: 64.4 h for the first, 66.4 h for the second.

Compound `CCO[C@@H]1O[C@H](CNC(=O)c2ccc(S(N)(=O)=O)cc2)[C@H](O)[C@H](O)[C@H]1O` has a half-life of 61.1 h.

Test system: not listed separately
Experiment: Cytotoxicity against HCEC cells assessed as cell viability at 1% by MTT assay relative to control
Format: cell-based
Conditions: human, read-out: Activity

`CCCO[C@@H]1O[C@H](CNC(=O)c2ccc(S(N)(=O)=O)cc2)[C@@H](O)[C@H](O)[C@@H]1O` and `CCCO[C@@H]1O[C@H](CNC(=O)c2ccc(S(N)(=O)=O)cc2)[C@@H](O)[C@H](O)[C@H]1O` are the same in viability at 1 %: 76% for the first, 76% for the second.

Compared with `CC(=O)Nc1nnc(S(N)(=O)=O)s1` [ACETAZOLAMIDE], `CCO[C@@H]1O[C@H](CNC(=O)c2ccc(S(N)(=O)=O)cc2)[C@H](O)[C@H](O)[C@H]1O` is higher in viability at 1 %: 40% for the first, 76% for the second.

`CCCO[C@@H]1O[C@H](CNC(=O)c2ccc(S(N)(=O)=O)cc2)[C@@H](O)[C@H](O)[C@H]1N` and `CCCO[C@@H]1O[C@H](CNC(=O)c2ccc(S(N)(=O)=O)cc2)[C@H](O)[C@H](O)[C@H]1O` are the same in viability at 1 %: 76% for the first, 76% for the second.

Target: Carbonic anhydrase 9 (Homo sapiens, UniProt Q16790)
Experiment: Inhibition of recombinant human CA9 using 4-nitrophenylacetate as substrate by esterase assay
Conditions: not given

First: CCCO[C@@H]1O[C@H](CNC(=O)c2ccc(S(N)(=O)=O)cc2)[C@@H](O)[C@H](O)[C@@H]1O
Second: CCCO[C@@H]1O[C@H](CNC(=O)c2ccc(S(N)(=O)=O)cc2)[C@@H](O)[C@H](O)[C@H]1O
The IC50 of the first is 1.6-fold higher: 260 nM for the first, 160 nM for the second. The second is the more potent here.

`CCCO[C@@H]1O[C@H](CNC(=O)c2ccc(S(N)(=O)=O)cc2)[C@@H](O)[C@H](O)[C@H]1N` and `CCCO[C@@H]1O[C@H](CNC(=O)c2ccc(S(N)(=O)=O)cc2)[C@H](O)[C@H](O)[C@H]1O` are within 1.5-fold of each other in IC50: 290 nM for the first, 220 nM for the second.

With `CCO[C@@H]1O[C@H](CNC(=O)c2ccc(S(N)(=O)=O)cc2)[C@H](O)[C@H](O)[C@H]1O` the IC50 was 180 nM.

Test system: not listed separately
Experiment: in vitro
Conditions: mouse, liver microsomes
Remark: another data set of the same source
Description: Metabolic stability in mouse liver microsomes assessed as clearance

`CCCO[C@@H]1O[C@H](CNC(=O)c2ccc(S(N)(=O)=O)cc2)[C@@H](O)[C@H](O)[C@@H]1O` and `CCCO[C@@H]1O[C@H](CNC(=O)c2ccc(S(N)(=O)=O)cc2)[C@@H](O)[C@H](O)[C@H]1O` are within 1.5-fold of each other in CLint scaled: 1.42 mL/min/kg for the first, 1.53 mL/min/kg for the second.

`CCCO[C@@H]1O[C@H](CNC(=O)c2ccc(S(N)(=O)=O)cc2)[C@@H](O)[C@H](O)[C@H]1N` and `CCCO[C@@H]1O[C@H](CNC(=O)c2ccc(S(N)(=O)=O)cc2)[C@H](O)[C@H](O)[C@H]1O` are within 1.5-fold of each other in CLint scaled: 1.42 mL/min/kg for the first, 1.38 mL/min/kg for the second.

In the case of `CCO[C@@H]1O[C@H](CNC(=O)c2ccc(S(N)(=O)=O)cc2)[C@H](O)[C@H](O)[C@H]1O`, the CLint scaled is reported as 1.5 mL/min/kg.

Test system: not listed separately
Experiment: Cytotoxicity against HCEC cells assessed as cell viability at 2 % by MTT assay relative to control
Format: cell-based
Conditions: human, read-out: Activity

`CCCO[C@@H]1O[C@H](CNC(=O)c2ccc(S(N)(=O)=O)cc2)[C@@H](O)[C@H](O)[C@@H]1O` and `CCCO[C@@H]1O[C@H](CNC(=O)c2ccc(S(N)(=O)=O)cc2)[C@@H](O)[C@H](O)[C@H]1O` are the same in viability at 2 %: 71% for the first, 71% for the second.

Going from `CC(=O)Nc1nnc(S(N)(=O)=O)s1` [ACETAZOLAMIDE] to `CCO[C@@H]1O[C@H](CNC(=O)c2ccc(S(N)(=O)=O)cc2)[C@H](O)[C@H](O)[C@H]1O`, the viability at 2 % rises from 25% to 71%.

`CCCO[C@@H]1O[C@H](CNC(=O)c2ccc(S(N)(=O)=O)cc2)[C@@H](O)[C@H](O)[C@H]1N` and `CCCO[C@@H]1O[C@H](CNC(=O)c2ccc(S(N)(=O)=O)cc2)[C@H](O)[C@H](O)[C@H]1O` are the same in viability at 2 %: 71% for the first, 71% for the second.

Test system: not listed separately
Experiment: Solubility of compound in water
Format: physicochemical
Conditions: buffer

`CCCO[C@@H]1O[C@H](CNC(=O)c2ccc(S(N)(=O)=O)cc2)[C@@H](O)[C@H](O)[C@@H]1O` and `CCCO[C@@H]1O[C@H](CNC(=O)c2ccc(S(N)(=O)=O)cc2)[C@@H](O)[C@H](O)[C@H]1O` are the same in solubility: 2.1% for the first, 2.1% for the second.

Compared with `CCN[C@H]1CN(CCCOC)S(=O)(=O)c2sc(S(N)(=O)=O)cc21` [BRINZOLAMIDE], `CCN[C@H]1C[C@H](C)S(=O)(=O)c2sc(S(N)(=O)=O)cc21` [DORZOLAMIDE] is higher in solubility: 0.05% for the first, 0.67% for the second.

Going from `CC(=O)Nc1nnc(S(N)(=O)=O)s1` [ACETAZOLAMIDE] to `CCO[C@@H]1O[C@H](CNC(=O)c2ccc(S(N)(=O)=O)cc2)[C@H](O)[C@H](O)[C@H]1O`, the solubility rises from 0.21% to 2.1%.

`CCCO[C@@H]1O[C@H](CNC(=O)c2ccc(S(N)(=O)=O)cc2)[C@@H](O)[C@H](O)[C@H]1N` and `CCCO[C@@H]1O[C@H](CNC(=O)c2ccc(S(N)(=O)=O)cc2)[C@H](O)[C@H](O)[C@H]1O` are the same in solubility: 2.2% for the first, 2.2% for the second.
